We go through two substances from US20250127896A1, “CHIMERIC TIM4 RECEPTORS AND USES THEREOF” (CERO THERAPEUTICS HOLDINGS, INC., priority 2021, published 2025).

Common to all, as to type: cell-based
In data set [1] the test system is REC-1 cells. Kind of data set: Cytokine induction in CER T / REC-1 co-cultures (multiparametric ELISA). The settings on record: for cytokine response (GrB, IFN-γ, TNF-α) with BTK inhibitor: ibrutinib-induced phosphatidylserine exposure. On the procedure: FIGS. 16A-16H: Induction of Cytokines in Ibrutinib-Treated Co-Cultures of CER1183 and CER1234 T cells and REC-1 Target Cells. Samples depicted in bar graphs from left to right, untransduced, CER-1183, and CER-1234. FIG. 16A: TNFα induction. FIG. 16B: IL-2 induction. FIG. 16C: IFNγ. FIG. 16D: IL-5 induction. FIG. 16E: IL-6 induction. FIG. 16F: IL-10 induction. FIG. 16G: IL-4 induction. FIG. 16H: granzyme B induction.
Cytokine induction was assessed by multiparametric ELISA using conditioned supernatants harvested after 96 hours in the cytotoxicity assay described above.
CER T-cell activation was assessed by measuring induction of IFN-gamma by plate- and cell-based assays. Single induction plate assay: varying concentrations of phosphatidylserine (PS) or phosphatidylethanolamine (PE), a control membrane phospholipid not recognized by wild type TIM-4 (wtTIM-4), were coated onto high-binding tissue culture plates. CER T cells were added and IFN-γ levels were measured 24 hours after ligand exposure by ELISA. EC50 concentrations were determined by nonlinear regression (agonist vs. response-variable slope (4 parameters)). Induction by recursive stimulation plate assay: CER T cells were added to phosphatidylserine coated plates (2.5-20 μg/mL PS coating). Five days later, CER T cells were transferred to uncoated plates with fresh T cell optimizer media for 24 hours. Then, CER T cells were transferred again to a fresh PS coated plate. Supernatant was collected to assess IFN-γ induction by ELISA at various timepoints during re-stimulation (24, 72, and 120 hours). Cell-based assay: cytokine induction was assessed by multiparametric ELISA using conditioned supernatants harvested after 120 hours from the cytotoxicity assay described below.
(In an ELISA, binding on a coated surface is turned into a signal by an enzyme label.)

A further data set concerns Jeko1 TMEM30A−/− cells. Nature of the data set: CER T cell cytotoxicity against Jeko1 TMEM30A−/− cells (Incucyte). The note with it: for cytotoxic function against Jeko1 TMEM30A−/− cells: co-culture assays. On the procedure: FIG. 22: CER1234 or CER1236 T cells display cytotoxic function against Jeko1 TMEM30A^−/− MCL cells as measured by incucyte assay.
Statistical analysis was performed using 2-way ANOVA.

The subject of data set [2] is REC-1 cells. Nature of the data set: Phagocytosis of pHrodo-labeled ibrutinib-treated REC-1 cells by CER T cells. From the text:
FIG. 13A: Representative flow cytometry histograms showing engulfment of pHrodo red-labeled REC-1 target cells by CER1234, CER1161, and CER1183 T cells. FIG. 13B: Graphical summary of flow cytometry data showing engulfment of pHrodo red-labeled REC-1 target cells by CER1234, CER1161, and CER1183 T cells. * P<0.01, ** P<0.001, *** P<0.0001; mean+SD, n=4. FIG. 13C: Representative fluorescence microscopy images (at 40×) showing engulfment of pHrodo red-labeled REC-1 target cells by CER1234, CER1161, and CER1183 T cells. FIG. 13D: Engulfed pHrodo-green-labeled REC-1 tumor fragments co-localize into Lyso-tracker red-labeled lysosomes.
Phagocytosis was assessed in co-culture assays of REC-1 cells with CER T cells. […] The percentage of pHrodo red-positive cells was determined by flow cytometry after 16 or 40 hours of co-culture. The localization of tumor fragments in CER T-cell lysosomal compartments was assessed in a separate experiment with REC-1 cells labeled with pHrodo green; following co-culture, all cells were labeled with Lyso-tracker red. Visualization of engulfment was performed by fluorescence microscopy. 1-way ANOVA with Dunnett's post hoc test was performed compared with untransduced T cells.

Data set [3] relates to REC-1 cells. Kind of data set: T-cell activation markers PD-1 and 4-1BB in co-culture with REC-1 cells (flow cytometry). The settings on record: co-culture with REC-1 cells in the presence of 0.5 μM ibrutinib, 96 hours. On the procedure:
FIGS. 15A-15B: Induction of Cell-Surface Markers of T-Cell Activation in Ibrutinib-Treated Co-Cultures of CER1183 and CER1234 T cells and REC-1 Target Cells. Samples depicted in bar graphs from left to right, untransduced, CER-1183, and CER-1234. FIG. 15A: PD-1 expression in co-cultures. FIG. 15B: 4-1BB expression in co-cultures.
T-cell activation markers programmed death-1 (PD-1) and 4-1BB were evaluated on viable CD3+ T cells by flow cytometry using commercially available fluorochrome-conjugated antibodies. […] Assays were conducted 96 hours after initiation of co-culture of CER T cells with REC-1 cells.
In general terms: Flow cytometry measures light scatter and fluorescence of single cells or particles in a stream.

A further data set concerns NSCLC H1975 cells. Nature of the data set: H1975 NSCLC cell growth with CER1236 T cells and osimertinib (Incucyte). The note with it: 100 nM osimertinib 24 h, then 4.88 nM, E:T 0.25:1, 120 h. As to the method:
FIG. 39: Graph showing NSCLC H1975 cell growth for cells pretreated with 100 nM osimertinib or vehicle and then co-cultured with CER1236 T cells.
CER1236 T cells were tested in combination with EGFR tyrosine kinase inhibitor osimertinib on a non-small cell lung cancer (NSCLC) cell line. Ten-thousand NSCLC H1975 cells were cultured for 24 h with 100 nM osimertinib or vehicle (DMSO) and then co-cultured with 2500 CER1236 T cells at an Effector:Target cell ratio of 0.25:1 in the presence or absence of 4.88 nM osimertinib or vehicle. Tumor cell growth was monitored with indicated for 120 h in an Incucyte assay.

The next data set relates to phosphatidylserine (PS). Nature of the data set: Recursive stimulation plate assay: IFN-γ on serial phosphatidylserine exposure. The settings on record: 3 serial rounds. The text has this:
FIGS. 19A-19C: CER T cells are activated and produce IFN-γ in response to phosphatidylserine engagement in a cell-free in vitro system. FIG. 19A: IFN-γ production in response phosphatidylserine (PS). IFN-γ production was induced in CER-1236 and CER-1234 T cells stimulated with PS (FIG. 19A), but not with phosphatidylethanolamine (PE) (FIG. 19B). […] FIG. 19C: CER1236 T cells are capable of recursive stimulation in vitro. Recursive IFN-γ induction with 3 serial stimulations at the indicated time points following a 24-hour rest after the first stimulation.
FIG. 43 is a schematic depicting assay design for measuring CER1236 reactivation in response to stimulus by repeated phosphatidylserine stimulation of CER1236 T cells and measurement of IFNγ production.
CER T-cell activation was assessed by measuring induction of IFN-gamma by plate- and cell-based assays. […] CER T cells were added and IFN-γ levels were measured 24 hours after ligand exposure by ELISA. EC50 concentrations were determined by nonlinear regression (agonist vs. response-variable slope (4 parameters)). […] Cell-based assay: cytokine induction was assessed by multiparametric ELISA using conditioned supernatants harvested after 120 hours from the cytotoxicity assay described below.

In data set [4] the test system is JeKo-1 MCL mCherry+ cells. Nature of the data set: IFN-γ secretion of CER1236 T cells co-cultured with ibrutinib-treated JeKo-1 cells (ELLA). The settings on record: JeKo-1 pretreated 20 μM Ibrutinib 48 h, co-culture 0.5 μM Ibrutinib, 120 h. As to the method: After 120 h, IFN-γ secretion was measured using ELLA automated ELISA.

On to “CER-1234: chimeric Tim4 receptor: Tim4 binding domain-CD28tm-CD28-TLR2 TIR-CD3z, SEQ ID NO:18; tested as transduced T cells”, for which, in the data set with REC-1 cells [1] (co-culture with REC-1 cells, 0.5 μM ibrutinib), the “IL-2, IL-4 and IL-6” value is “nominally increased”. Besides, the “cytokine induction: TNF-α, IFN-γ, IL-10, IL-5, granzyme B” value in the data set with REC-1 cells [1] (co-culture with REC-1 cells, 0.5 μM ibrutinib, 96 hours) is “induced”. Besides, the “cytokine response (GrB, IFN-γ, TNF-α) with BTK inhibitor” value is given as “production of Th1 cytokines” in the data set with REC-1 cells [1] and “enhances CER1234 T cell cytokine response” in the data set with REC-1 cells [1] (listed as CER1234). In addition, in the data set with Jeko1 TMEM30A−/− cells (JeKo-1 PS+ cells, 96 hrs, low effector:target ratios), the targets eliminated amounted to 90%. Further, in the data set on Jeko1 TMEM30A−/− cells, the “cytotoxic function against Jeko1 TMEM30A−/− cells” value is recorded as “efficiently eliminate Jeko1 TMEM30A^−/− cells”. The “localization of internalized fragments” value with REC-1 cells [2] (BTK inhibitor-primed REC-1 cells) is “internalized fragments were localized to lysosomal compartments”. In the data set on REC-1 cells [2] (REC-1 pretreated 10 μM ibrutinib, 16 and 40 hours of co-culture), the “engulfment of pHrodo red+ target cells” value was “increased engulfment of pHrodo red+target cells relative to untransduced T cells”. Besides, in the data set with REC-1 cells [3], the “PD-1 and 4-1BB expression on the T-cell surface” value was “increased PD-1 and 4-1BB expression”.
“CER-1236: chimeric Tim4 receptor: Tim4 binding domain-CD28tm-CD28-CD3z-TLR2 TIR, SEQ ID NO:19; tested as transduced T cells”: the “cytotoxic function against Jeko1 TMEM30A−/− cells” value in the data set on Jeko1 TMEM30A−/− cells is “efficiently eliminate Jeko1 TMEM30A^−/− cells”. In the data set on NSCLC H1975 cells, the “H1975 tumor cell growth, combination with osimertinib” value was “synergizes to inhibit H1975 NSCLC cells in vitro”. Besides, the “IFN-γ response upon serial phosphatidylserine exposure” value in the data set on phosphatidylserine (PS) was “elicited repeated IFN-γ response upon 3 serial rounds of exposure to phosphatidylserine”. In addition, the “IFN-γ response with ibrutinib” value in data set [4] is recorded as “enhances CER1236 T cell IFN-γ response”.
